The target in one data set is T1, CSF-1R (Homo sapiens, UniProt P07333).
T1 construct: purchased Invitrogen PV3249 (lot 662393N)
The data set can be described thus: Caliper biochemical assay, CSF-1R. The settings on record: Table 6. On the procedure:
(§1) Enzyme, substrate, and cofactors (ATP and Mn^2+) are combined in a well of a microtiter plate and incubated for 3 hours at 25° C. At the end of the incubation, the reaction is quenched by the addition of an EDTA-containing buffer. Substrate and product are separated electrophoretically using the microfluidic-based LabChip 3000 Drug Discovery System from Caliper Life Sciences* and quantitated by fluorescence intensity.
(§2) The substrate used in the CSF-1R and PDGFRα assay is FAM-[…]-CONH2 (FAM is carboxyfluorescein). Peptide should be >95% purity. The substrate for the KIT assay is FAM-[…]-NH2.
(§3) • 1. To a well of a 384-well plate add 5 μL of 2× enzyme buffer (or control) • 2. Add 100 nL of 100× compound. • 3. Add 5 μL of 2× substrate buffer. • 4. Incubate plate at 25° C. for 3 hours. • 5. Add 10 uL of […]. • 6. Read plate LabChip 3000 Drug Discovery System
(§4) • 3 hours at 25° C. where 100% Inhibitor: No enzyme.

Data set [1] has as its target T2, wtKIT (Homo sapiens, UniProt P10721).
T2 construct: 1888289AM in the reaction mixtures
Nature of the data set: Caliper biochemical assay, wtKIT. The settings on record: Table 6, read-out: KIT Biochemical IC50 avg. Put shortly: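 Enzyme (5.0 nM wtKIT), 1 μM FAM-labelled peptide, 400 μM ATP and 10 mM MnCl2 in HEPES pH 7.5 with 1% DMSO, incubated 3 h at 25° C. EDTA quench; substrate and phosphoproduct separated by microfluidic electrophoresis and quantified by fluorescence.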

The nature of the next data set: Kinetic solubility assay. In kind it is physicochemical. The settings on record: kinetic solubility, 50 mM PB (pH 7.4), shaken 24 hours at RT. Put shortly: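 Test compounds from 10 mM DMSO stock were diluted in 50 mM phosphate buffer, pH 7.4, and shaken for 24 h at RT. After PTFE filtration and centrifugation, filtrate concentration was quantified by UPLC-UV/HPLC-UV against a standard curve.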

Another data set addresses T3, PDGFRα (Homo sapiens, UniProt P16234).
T3 construct: purchased Millipore 14-467 (lot 26321_ACTI)
The data set can be described thus: Caliper biochemical assay, PDGFRα. The settings on record: Table 6. How it is done: as §1, §2, §3, §4

The target in data set [2] is T2, wtKIT. The data set can be described thus: HTRF biochemical assay, wtKIT (phosphorylation of a peptide substrate). The settings on record: Table 4. Put shortly: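 wtKIT (5.0 nM) phosphorylating 1 µM FAM-labelled peptide with 400 µM ATP and 10 mM MnCl2 in 100 mM HEPES pH 7.5, 1% DMSO, 3 h at 25 °C. EDTA quench; phosphopeptide detected with anti-phosphotyrosine antibody by HTRF. Enzyme titrated for 10-20% substrate conversion.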

Structures are written as SMILES.

T3 sequence (P16234 24-1089): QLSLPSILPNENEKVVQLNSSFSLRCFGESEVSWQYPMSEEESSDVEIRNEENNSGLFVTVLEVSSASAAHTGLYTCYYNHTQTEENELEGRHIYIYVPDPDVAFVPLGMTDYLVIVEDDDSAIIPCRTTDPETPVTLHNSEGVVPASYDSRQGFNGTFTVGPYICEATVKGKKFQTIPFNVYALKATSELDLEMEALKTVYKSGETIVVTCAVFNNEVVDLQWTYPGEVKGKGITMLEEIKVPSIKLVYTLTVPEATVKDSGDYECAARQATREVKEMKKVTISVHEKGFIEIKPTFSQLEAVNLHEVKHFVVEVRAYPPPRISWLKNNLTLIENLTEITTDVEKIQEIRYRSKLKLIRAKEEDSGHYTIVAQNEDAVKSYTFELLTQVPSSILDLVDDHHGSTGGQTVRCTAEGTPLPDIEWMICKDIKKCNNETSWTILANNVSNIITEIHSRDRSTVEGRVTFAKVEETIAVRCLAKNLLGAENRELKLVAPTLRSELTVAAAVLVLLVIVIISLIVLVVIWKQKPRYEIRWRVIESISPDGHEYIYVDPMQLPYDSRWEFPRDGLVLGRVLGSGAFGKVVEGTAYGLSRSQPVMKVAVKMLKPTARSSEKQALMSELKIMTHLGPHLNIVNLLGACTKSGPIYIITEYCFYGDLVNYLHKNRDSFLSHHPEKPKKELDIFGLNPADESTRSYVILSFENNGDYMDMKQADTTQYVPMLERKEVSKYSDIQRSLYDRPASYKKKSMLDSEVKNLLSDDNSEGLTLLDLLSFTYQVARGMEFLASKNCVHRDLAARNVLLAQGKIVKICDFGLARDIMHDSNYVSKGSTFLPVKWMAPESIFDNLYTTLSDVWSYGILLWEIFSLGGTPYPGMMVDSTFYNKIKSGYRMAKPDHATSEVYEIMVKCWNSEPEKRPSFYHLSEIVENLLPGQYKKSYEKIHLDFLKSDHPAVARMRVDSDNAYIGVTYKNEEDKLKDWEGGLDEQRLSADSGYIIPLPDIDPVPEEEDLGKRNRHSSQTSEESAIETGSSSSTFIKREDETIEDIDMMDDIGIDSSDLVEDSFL
T2 sequence (P10721 26-976): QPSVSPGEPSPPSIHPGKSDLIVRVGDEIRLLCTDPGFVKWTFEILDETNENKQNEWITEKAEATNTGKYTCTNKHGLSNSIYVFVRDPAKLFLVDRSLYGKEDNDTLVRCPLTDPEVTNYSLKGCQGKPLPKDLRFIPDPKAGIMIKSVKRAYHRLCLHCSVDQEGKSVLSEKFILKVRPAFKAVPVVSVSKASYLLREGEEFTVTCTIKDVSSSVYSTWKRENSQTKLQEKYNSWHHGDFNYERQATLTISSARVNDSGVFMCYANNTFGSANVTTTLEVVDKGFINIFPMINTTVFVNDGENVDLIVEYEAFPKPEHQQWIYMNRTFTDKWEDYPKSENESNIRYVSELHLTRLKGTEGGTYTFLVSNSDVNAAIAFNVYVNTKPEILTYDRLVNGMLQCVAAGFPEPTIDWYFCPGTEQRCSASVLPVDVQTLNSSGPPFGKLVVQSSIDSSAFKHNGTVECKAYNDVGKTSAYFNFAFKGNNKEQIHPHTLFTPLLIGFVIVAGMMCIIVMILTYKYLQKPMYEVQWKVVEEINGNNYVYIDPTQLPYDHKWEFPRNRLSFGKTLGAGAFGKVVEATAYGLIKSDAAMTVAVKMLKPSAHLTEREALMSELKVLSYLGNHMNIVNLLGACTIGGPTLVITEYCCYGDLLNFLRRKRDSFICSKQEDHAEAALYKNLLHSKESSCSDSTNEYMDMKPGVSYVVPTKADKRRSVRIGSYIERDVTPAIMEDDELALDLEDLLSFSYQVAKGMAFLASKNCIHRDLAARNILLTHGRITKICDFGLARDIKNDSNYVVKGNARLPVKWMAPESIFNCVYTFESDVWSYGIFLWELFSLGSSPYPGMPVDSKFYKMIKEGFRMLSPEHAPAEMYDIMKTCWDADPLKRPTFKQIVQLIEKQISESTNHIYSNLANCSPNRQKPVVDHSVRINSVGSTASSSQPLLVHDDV
T1 sequence (P07333 20-972): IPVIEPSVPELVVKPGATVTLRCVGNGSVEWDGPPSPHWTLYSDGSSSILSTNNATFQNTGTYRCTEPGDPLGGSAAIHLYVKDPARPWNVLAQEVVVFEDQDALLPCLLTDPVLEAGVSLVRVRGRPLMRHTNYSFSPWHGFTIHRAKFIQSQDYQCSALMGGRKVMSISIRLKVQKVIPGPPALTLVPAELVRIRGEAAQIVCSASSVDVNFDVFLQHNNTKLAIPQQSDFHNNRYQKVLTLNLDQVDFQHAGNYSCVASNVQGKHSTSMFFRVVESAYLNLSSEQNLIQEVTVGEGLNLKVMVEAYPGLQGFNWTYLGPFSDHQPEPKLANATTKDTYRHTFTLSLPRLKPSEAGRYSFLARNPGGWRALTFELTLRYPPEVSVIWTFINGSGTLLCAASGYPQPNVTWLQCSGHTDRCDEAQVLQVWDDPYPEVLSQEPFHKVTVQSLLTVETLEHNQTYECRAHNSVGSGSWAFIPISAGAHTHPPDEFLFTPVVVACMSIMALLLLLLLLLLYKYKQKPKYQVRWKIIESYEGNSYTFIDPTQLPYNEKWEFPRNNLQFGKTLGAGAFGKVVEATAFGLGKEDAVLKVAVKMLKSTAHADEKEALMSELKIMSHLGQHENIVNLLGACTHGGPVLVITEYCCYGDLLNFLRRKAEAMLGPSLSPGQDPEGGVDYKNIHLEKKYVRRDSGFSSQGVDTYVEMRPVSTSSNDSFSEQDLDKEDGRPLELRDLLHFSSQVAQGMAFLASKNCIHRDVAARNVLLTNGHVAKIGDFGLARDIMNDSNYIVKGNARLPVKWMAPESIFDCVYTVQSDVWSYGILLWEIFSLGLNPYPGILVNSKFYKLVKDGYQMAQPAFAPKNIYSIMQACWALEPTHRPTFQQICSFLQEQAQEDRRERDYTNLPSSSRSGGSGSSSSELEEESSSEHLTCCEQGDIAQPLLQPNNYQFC

By IC50 is commonly meant the concentration that gives 50% inhibition. Take `COC(=O)CS(=O)(=O)N1CC(c2nc(-c3ccc(C)c(NC(=O)c4cnc5ccccn45)c3)no2)C1` [Compound I-236]: the IC50 was 0.5 to 5 µM against CSF-1R, ≤ 0.05 µM on wtKIT [1], 5 to 30 µM against PDGFRα and 0.05 to 0.5 µM at wtKIT [2]. The “Solubility (μM)” value in the data set “Kinetic solubility assay” is “*** (a solubility greater than 2 μM and less than or equal to 10 μM)”.

With `Cc1ccc(-c2noc(C3CCN3S(C)(=O)=O)n2)cc1NC(=O)c1cnc2ccccn12` (stereo not drawn) [Compound I-331], the IC50 was ≤ 0.05 µM on CSF-1R, ≤ 0.05 µM on wtKIT [1] and 0.05 to 0.5 µM against PDGFRα. Besides, the “Solubility (μM)” value in the data set “Kinetic solubility assay” is “** (a solubility greater than 10 μM and less than or equal to 50 μM)”.

Consider `CCN1CC[C@H]1c1nc(-c2ccc(C)c(NC(=O)c3cnc4ccccn34)c2)no1` (racemic) [Compound I-180], for which the results for the IC50 at CSF-1R, at wtKIT [1] and against PDGFRα were 0.05 to 0.5 µM, ≤ 0.05 µM and 0.5 to 5 µM, respectively. For the same molecule, the “Solubility (μM)” value in the data set “Kinetic solubility assay” is listed as “* (a solubility greater than 50 μM)”.

As for `CCS(=O)(=O)N1CC[C@@H]1c1nc(-c2ccc(C)c(NC(=O)c3cnc4ccccn34)c2)no1` [Compound I-234], the IC50 at CSF-1R was ≤ 0.05 µM; at wtKIT [1], ≤ 0.05 µM; against PDGFRα it was 0.05 to 0.5 µM; at wtKIT [2], 0.05 to 0.5 µM. In addition, the “Solubility (μM)” value in “Kinetic solubility assay” is “** (a solubility greater than 10 μM and less than or equal to 50 μM)”.

Regarding `Cc1ccc(-c2noc([C@@H]3CCC(C)(C)N3)n2)cc1NC(=O)c1cnc2ccccn12` (racemic) [Compound I-232], the IC50 at CSF-1R is ≤ 0.05 µM; on wtKIT [1], ≤ 0.05 µM; against PDGFRα, 0.05 to 0.5 µM; at wtKIT [2], 0.05 to 0.5 µM. For the same molecule, the “Solubility (μM)” value in “Kinetic solubility assay” was “** (a solubility greater than 10 μM and less than or equal to 50 μM)”.

`Cc1ccc(-c2noc(CC(O)C(F)(F)F)n2)cc1NC(=O)c1cnc2ccccn12` (racemic) [Compound I-183]: the results for the IC50 on CSF-1R, at wtKIT [1] and at PDGFRα were 0.05 to 0.5 µM, 0.05 to 0.5 µM and 5 to 30 µM, respectively. Also, the “Solubility (μM)” value in the data set “Kinetic solubility assay” is listed as “**** (a solubility less than or equal to 2 μM)”.

With `Cc1ccc(-c2noc([C@@H]3CCC(F)(F)CN3)n2)cc1NC(=O)c1cnc2ccccn12` (racemic) [Compound I-198], the IC50 on CSF-1R is 0.05 to 0.5 µM; on wtKIT [1], ≤ 0.05 µM; at PDGFRα, 0.5 to 5 µM. Moreover, the “Solubility (μM)” value in “Kinetic solubility assay” is “*** (a solubility greater than 2 μM and less than or equal to 10 μM)”.

As to `Cc1ccc(Nc2ccn3c(C(=O)Nc4cc(-c5noc([C@H]6C[C@@H]6F)n5)ccc4C)cnc3c2)cc1` [Compound I-302], the IC50 against CSF-1R, at wtKIT [1] and against PDGFRα was ≤ 0.05 µM in each case. In addition, the “Solubility (μM)” value in “Kinetic solubility assay” is reported as “**** (a solubility less than or equal to 2 μM)”.

With `Cc1ccc(-c2noc([C@H](C)NS(=O)(=O)c3cnn(C)c3)n2)cc1NC(=O)c1cnc2ccccn12` (racemic) [Compound I-181], the IC50 on CSF-1R is ≤ 0.05 µM; at wtKIT [1], ≤ 0.05 µM; against PDGFRα, 0.5 to 5 µM. Further, the “Solubility (μM)” value in the data set “Kinetic solubility assay” is recorded as “* (a solubility greater than 50 μM)”.

Take `Cc1ccc(-c2noc([C@H]3C[C@@H]3F)n2)cc1NC(=O)c1cnc2cc(Nc3ccc4c(c3)OCCO4)ccn12` [Compound I-301]: the half-maximal inhibitory concentration (IC50) at CSF-1R, at wtKIT [1] and on PDGFRα was ≤ 0.05 µM throughout. In addition, the “Solubility (μM)” value in “Kinetic solubility assay” was “**** (a solubility less than or equal to 2 μM)”.

Consider `COC(=O)CS(=O)(=O)N1CC[C@H]1c1nc(-c2ccc(C)c(NC(=O)c3cnc4ccccn34)c2)no1` [Compound I-188], for which the IC50 was 0.05 to 0.5 µM against CSF-1R, ≤ 0.05 µM at wtKIT [1] and 0.05 to 0.5 µM at PDGFRα. Moreover, the “Solubility (μM)” value in “Kinetic solubility assay” is “*** (a solubility greater than 2 μM and less than or equal to 10 μM)”.

As for `Cc1ccc(-c2noc([C@@H]3CCN3CC(F)(F)F)n2)cc1NC(=O)c1cnc2ccccn12` (racemic) [Compound I-178], the IC50 against CSF-1R is ≤ 0.05 µM; on wtKIT [1] it was ≤ 0.05 µM; on PDGFRα, 0.05 to 0.5 µM. Further, in “Kinetic solubility assay”, the “Solubility (μM)” value was “**** (a solubility less than or equal to 2 μM)”.

Turning to `Cc1ccc(-c2noc([C@H]3CCN3C(C)C)n2)cc1NC(=O)c1cnc2ccccn12` [Compound I-194], the IC50 is ≤ 0.05 µM on CSF-1R, ≤ 0.05 µM on wtKIT [1] and 0.05 to 0.5 µM against PDGFRα. Besides, the “Solubility (μM)” value in the data set “Kinetic solubility assay” is “*** (a solubility greater than 2 μM and less than or equal to 10 μM)”.

For `COCCN1CC[C@H]1c1nc(-c2ccc(C)c(NC(=O)c3cnc4ccccn34)c2)no1` (racemic) [Compound I-179], the IC50 against CSF-1R lay in the range of 0.5 to 5 µM; on wtKIT [1], 0.05 to 0.5 µM; at PDGFRα it was 5 to 30 µM. Further, the “Solubility (μM)” value in “Kinetic solubility assay” was “* (a solubility greater than 50 μM)”.

In the case of `COC(=O)N1CC(c2nc(-c3ccc(C)c(NC(=O)c4cnc5cc(C(F)F)ccn45)c3)no2)C1` [Compound I-135], the IC50 against CSF-1R is 0.05 to 0.5 µM; at wtKIT [1], ≤ 0.05 µM; on PDGFRα it was 5 to 30 µM. Further, in “Kinetic solubility assay”, the “Solubility (μM)” value is “**** (a solubility less than or equal to 2 μM)”.

As for `Cc1ccc(-c2noc([C@@H]3CCN3C3CC3)n2)cc1NC(=O)c1cnc2ccccn12` (racemic) [Compound I-177], the IC50 at CSF-1R was 0.05 to 0.5 µM; at wtKIT [1], ≤ 0.05 µM; against PDGFRα, 0.05 to 0.5 µM. Moreover, the “Solubility (μM)” value in “Kinetic solubility assay” is on record as “**** (a solubility less than or equal to 2 μM)”.

Consider `Cc1ccc(-c2noc([C@H]3CCN3C3CCC3)n2)cc1NC(=O)c1cnc2ccccn12` [Compound I-193], for which the IC50 against CSF-1R is ≤ 0.05 µM; on wtKIT [1], ≤ 0.05 µM; on PDGFRα it was 0.05 to 0.5 µM. Also, in the data set “Kinetic solubility assay”, the “Solubility (μM)” value is recorded as “**** (a solubility less than or equal to 2 μM)”.

For the molecule `COC(=O)N1CC(c2nc(-c3ccc(C)c(NC(=O)c4cnc5cc(COCC(F)(F)F)ccn45)c3)no2)C1` [Compound I-128], the IC50 against CSF-1R is 0.05 to 0.5 µM; at wtKIT [1], ≤ 0.05 µM; against PDGFRα it was 5 to 30 µM. In addition, in the data set “Kinetic solubility assay”, the “Solubility (μM)” value is given as “**** (a solubility less than or equal to 2 μM)”.

In the case of `Cc1ccc(-c2noc([C@H]3C[C@@H]3F)n2)cc1NC(=O)c1cnc2cc(N3CCCCC3)ccn12` [Compound I-305], the figures for the IC50 against CSF-1R, on wtKIT [1] and on PDGFRα were ≤ 0.05 µM, ≤ 0.05 µM and 0.05 to 0.5 µM, respectively. For the same molecule, the “Solubility (μM)” value in the data set “Kinetic solubility assay” is given as “**** (a solubility less than or equal to 2 μM)”.

With `Cc1ccc(-c2noc([C@H]3CCN3S(=O)(=O)C3CCOCC3)n2)cc1NC(=O)c1cnc2ccccn12` [Compound I-196], the IC50 is ≤ 0.05 µM on CSF-1R, ≤ 0.05 µM at wtKIT [1] and 0.05 to 0.5 µM against PDGFRα. Moreover, the “Solubility (μM)” value in “Kinetic solubility assay” was “** (a solubility greater than 10 μM and less than or equal to 50 μM)”.

Take `Cc1ccc(-c2noc([C@H](C)NS(C)(=O)=O)n2)cc1NC(=O)c1cnc2ccccn12` [Compound I-147]: the IC50 is 0.05 to 0.5 µM on CSF-1R, ≤ 0.05 µM at wtKIT [1] and 5 to 30 µM against PDGFRα. Besides, in “Kinetic solubility assay”, the “Solubility (μM)” value is “** (a solubility greater than 10 μM and less than or equal to 50 μM)”.

Regarding `Cc1ccc(-c2noc([C@@H]3CCN3S(=O)(=O)c3ccccc3)n2)cc1NC(=O)c1cnc2ccccn12` [Compound I-186], the values for the IC50 on CSF-1R, at wtKIT [1] and against PDGFRα were 0.05 to 0.5 µM, 0.05 to 0.5 µM and 0.5 to 5 µM, respectively. In addition, in the data set “Kinetic solubility assay”, the “Solubility (μM)” value was “*** (a solubility greater than 2 μM and less than or equal to 10 μM)”.

Turning to `Cc1ccc(-c2noc(C3CCCCN3S(C)(=O)=O)n2)cc1NC(=O)c1cnc2ccccn12` (racemic) [Compound I-174], the IC50 on CSF-1R is ≤ 0.05 µM; on wtKIT [1], 0.05 to 0.5 µM; on PDGFRα, 0.05 to 0.5 µM. Further, in the data set “Kinetic solubility assay”, the “Solubility (μM)” value was “*** (a solubility greater than 2 μM and less than or equal to 10 μM)”.

For the molecule `Cc1ccc(-c2noc(C34CCC(CC3)CC4)n2)cc1NC(=O)c1cnc2ccccn12` [Compound I-311], the IC50 against CSF-1R was ≤ 0.05 µM; on wtKIT [1], 0.05 to 0.5 µM; at PDGFRα, ≤ 0.05 µM. In addition, the “Solubility (μM)” value in the data set “Kinetic solubility assay” is “**** (a solubility less than or equal to 2 μM)”.

These data come from US20240254119A1 (THIRD HARMONIC BIO, INC., priority 2022, published 2024).
